# Measurements published in ChEMBL document CHEMBL4373693, “Virtual Screening Approach and Investigation of Structure-Activity Relationships To Discover Novel Bacterial Topoisomerase Inhibitors Targeting Gram-Positive and Gram-Negative Pathogens” (J Med Chem, 2019).
# Experiments:
# [1] = Inhibition of Escherichia coli DNA topoisomerase 4
# DNA gyrase [2] = target: DNA gyrase (Escherichia coli, UniProt P0AES4+P0AES6); assay: Inhibition of Escherichia coli DNA gyrase; assay type: protein-complex assay
# Escherichia coli [3] = assay: Antibacterial activity against Escherichia coli; assay type: functional
# Staphylococcus aureus [4] = assay: Antibacterial activity against Staphylococcus aureus; assay type: functional
# [5] = target: T1, DNA topoisomerase 4 subunit A (Staphylococcus aureus, UniProt P0C1U9); assay: Inhibition of Staphylococcus aureus DNA topoisomerase 4 subunit ParC assessed as reduction in decatenation of kinetoplast DNA incubated for 60 mins by ethidium bromide staining based gel electrophoresis method
# DNA gyrase subunit A [6] = target: T2, DNA gyrase subunit A (Escherichia coli K-12, UniProt P0AES4); assay: Inhibition of Escherichia coli DNA gyrase A assessed as reduction in enzyme-mediated supercoiling of relaxed pBR322 DNA measured after 60 mins by electrophoresis method
# [7] = target: T3, DNA topoisomerase 4 subunit A (Escherichia coli K-12, UniProt P0AFI2); assay: Inhibition of Escherichia coli DNA topoisomerase 4 subunit ParC assessed as reduction in decatenation of kinetoplast DNA incubated for 60 mins by ethidium bromide staining based gel electrophoresis method
# T3 sequence (P0AFI2 whole entry): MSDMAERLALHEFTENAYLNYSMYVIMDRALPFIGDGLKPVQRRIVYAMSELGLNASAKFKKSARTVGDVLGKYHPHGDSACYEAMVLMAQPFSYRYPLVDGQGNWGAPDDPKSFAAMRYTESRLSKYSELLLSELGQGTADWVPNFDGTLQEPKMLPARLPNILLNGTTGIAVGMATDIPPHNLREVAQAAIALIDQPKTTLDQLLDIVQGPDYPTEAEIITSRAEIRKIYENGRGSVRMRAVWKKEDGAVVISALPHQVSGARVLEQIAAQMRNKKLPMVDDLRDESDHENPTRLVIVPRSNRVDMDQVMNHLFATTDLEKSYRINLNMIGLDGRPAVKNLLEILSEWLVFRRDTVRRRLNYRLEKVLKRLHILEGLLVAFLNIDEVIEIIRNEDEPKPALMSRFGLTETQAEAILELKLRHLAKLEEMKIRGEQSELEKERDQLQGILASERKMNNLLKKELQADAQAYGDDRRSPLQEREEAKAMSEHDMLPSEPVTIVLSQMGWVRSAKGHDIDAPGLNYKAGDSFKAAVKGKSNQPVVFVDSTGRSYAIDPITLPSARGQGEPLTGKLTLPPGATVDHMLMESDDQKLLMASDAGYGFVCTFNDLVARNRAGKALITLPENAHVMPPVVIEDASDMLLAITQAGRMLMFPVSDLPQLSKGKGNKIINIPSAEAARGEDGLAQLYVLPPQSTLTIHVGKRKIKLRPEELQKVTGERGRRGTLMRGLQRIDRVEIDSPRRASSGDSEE
# DNA gyrase subunit A [8] = target: T4, DNA gyrase subunit A (Staphylococcus aureus, UniProt P20831); assay: Inhibition of Staphylococcus aureus DNA gyrase A assessed as reduction in enzyme-mediated supercoiling of relaxed pBR322 DNA measured after 60 mins by electrophoresis method
# Escherichia coli [9] = assay: Selectivity ratio of MIC for Escherichia coli ATCC 25922 in presence of 50% human serum to MIC for Escherichia coli ATCC 25922; assay type: functional
# [10] = Selectivity ratio, ratio of IC50 for human HepG2 cells to MIC for Staphylococcus aureus ATCC 29213; assay type: toxicity; details: read-out: Selectivity Index
# Staphylococcus aureus [11] = assay: Antibacterial activity against Staphylococcus aureus BAA-1720 in presence of 50% human serum after 16 to 24 hrs by broth microdilution method; assay type: functional
# [12] = Selectivity ratio, ratio of IC50 for human HEK293 cells to MIC for Staphylococcus aureus ATCC 29213; assay type: toxicity; details: read-out: Selectivity Index
# Klebsiella pneumoniae = assay: Antibacterial activity against quinolone-sensitive Klebsiella pneumoniae ATCC 700603 after 16 to 24 hrs by broth microdilution method; assay type: functional
# DNA gyrase subunit A [13] = target: T4, DNA gyrase subunit A; assay: Inhibition of Staphylococcus aureus ATCC 29213 DNA gyrase A assessed as reduction in enzyme-mediated supercoiling of relaxed pBR322 DNA by ethidium bromide staining based gel electrophoresis method
# Neisseria gonorrhoeae = assay: Antibacterial activity against Neisseria gonorrhoeae ATCC 19424 after 16 to 24 hrs by broth microdilution method; assay type: functional
# Haemophilus influenzae [14] = assay: Antibacterial activity against quinolone-sensitive Haemophilus influenzae H128 after 16 to 24 hrs by broth microdilution method; assay type: functional
# Staphylococcus aureus [15] = assay: Antibacterial activity against Staphylococcus aureus ATCC 29213 in presence of 50% human serum after 16 to 24 hrs by broth microdilution method; assay type: functional
# Enterococcus faecalis = assay: Antibacterial activity against Enterococcus faecalis ATCC 29212 after 16 to 24 hrs by broth microdilution method; assay type: functional
# [16] = Selectivity ratio, ratio of IC50 for human HEK293 cells to MIC for Escherichia coli ATCC 25922; assay type: toxicity; details: read-out: Selectivity Index
# [17] = Cytotoxicity against human HCE2 cells incubated for 2 hrs by MTT assay; assay type: cell-based
# HT-29 = assay: Cytotoxicity against human HT-29 cells after 24 hrs by resazurin dye based CellTiter-Blue assay; assay type: cell-based; details: HT-29, 24 h
# Staphylococcus aureus [18] = assay: Antibacterial activity against Staphylococcus aureus BAA-1720 after 16 to 24 hrs by broth microdilution method; assay type: functional
# [19] = target: T3, DNA topoisomerase 4 subunit A; assay: Inhibition of Escherichia coli ATCC 25922 DNA topoisomerase 4 subunit ParC assessed as reduction in decatenation of kinetoplast DNA incubated for 30 mins by ethidium bromide staining based gel electrophoresis method
# HepG2 = assay: Cytotoxicity against human HepG2 cells after 48 hrs by Alamar blue staining-based fluorometric analysis; assay type: cell-based; details: HepG2, 48 h
# [20] = target: T1, DNA topoisomerase 4 subunit A; assay: Inhibition of Staphylococcus aureus ATCC 29213 DNA topoisomerase 4 subunit ParC assessed as reduction in decatenation of kinetoplast DNA incubated for 30 mins by ethidium bromide staining based gel electrophoresis method
# Staphylococcus aureus [21] = assay: Antibacterial activity against Staphylococcus aureus ATCC 29213 after 16 to 24 hrs by broth microdilution method; assay type: functional
# Enterococcus faecium = assay: Antibacterial activity against vancomycin resistant and teicoplanin sensitive Enterococcus faecium APV 00420 after 16 to 24 hrs by broth microdilution method; assay type: functional
# Staphylococcus aureus [22] = assay: Selectivity ratio of MIC for Staphylococcus aureus ATCC 29213 in presence of 50% human serum to MIC for Staphylococcus aureus ATCC 29213; assay type: functional
# Pseudomonas aeruginosa = assay: Antibacterial activity against Pseudomonas aeruginosa ATCC 27853 after 16 to 24 hrs by CLSI method; assay type: functional
# Staphylococcus aureus [23] = assay: Selectivity ratio of MIC for Staphylococcus aureus BAA-1720 in presence of 50% human serum to MIC for Staphylococcus aureus BAA-1720; assay type: functional
# Escherichia coli [24] = assay: Antibacterial activity against Escherichia coli ATCC 25922 in presence of 50% human serum after 16 to 24 hrs by broth microdilution method; assay type: functional
# HEK293 = assay: Cytotoxicity against human HEK293 cells after 48 hrs by Alamar blue staining-based fluorometric analysis; assay type: cell-based; details: HEK293, 48 h
# DNA gyrase subunit A [25] = target: T2, DNA gyrase subunit A; assay: Inhibition of Escherichia coli ATCC 25922 DNA gyrase A assessed as reduction in enzyme-mediated supercoiling of relaxed pBR322 DNA by ethidium bromide staining based gel electrophoresis method
# Escherichia coli [26] = assay: Antibacterial activity against Escherichia coli ATCC 25922 after 16 to 24 hrs by broth microdilution method; assay type: functional
# Haemophilus influenzae [27] = assay: Antibacterial activity against quinolone-sensitive Haemophilus influenzae ATCC 49766 after 16 to 24 hrs by broth microdilution method; assay type: functional
# [28] = Selectivity ratio, ratio of IC50 for human HepG2 cells to MIC for Escherichia coli ATCC 25922; assay type: toxicity; details: read-out: Selectivity Index
# DNA gyrase [29] = target: DNA gyrase (Staphylococcus aureus, UniProt P0A0K8+P20831); assay: Inhibition of Staphylococcus aureus DNA gyrase; assay type: protein-complex assay
# Topoisomerase IV = Topoisomerase IV (Staphylococcus aureus, UniProt P0C1S7+P0C1U9); assay: Inhibition of Staphylococcus aureus DNA topoisomerase 4; assay type: protein-complex assay
# Sequence of Topoisomerase IV (P0C1U9 whole entry): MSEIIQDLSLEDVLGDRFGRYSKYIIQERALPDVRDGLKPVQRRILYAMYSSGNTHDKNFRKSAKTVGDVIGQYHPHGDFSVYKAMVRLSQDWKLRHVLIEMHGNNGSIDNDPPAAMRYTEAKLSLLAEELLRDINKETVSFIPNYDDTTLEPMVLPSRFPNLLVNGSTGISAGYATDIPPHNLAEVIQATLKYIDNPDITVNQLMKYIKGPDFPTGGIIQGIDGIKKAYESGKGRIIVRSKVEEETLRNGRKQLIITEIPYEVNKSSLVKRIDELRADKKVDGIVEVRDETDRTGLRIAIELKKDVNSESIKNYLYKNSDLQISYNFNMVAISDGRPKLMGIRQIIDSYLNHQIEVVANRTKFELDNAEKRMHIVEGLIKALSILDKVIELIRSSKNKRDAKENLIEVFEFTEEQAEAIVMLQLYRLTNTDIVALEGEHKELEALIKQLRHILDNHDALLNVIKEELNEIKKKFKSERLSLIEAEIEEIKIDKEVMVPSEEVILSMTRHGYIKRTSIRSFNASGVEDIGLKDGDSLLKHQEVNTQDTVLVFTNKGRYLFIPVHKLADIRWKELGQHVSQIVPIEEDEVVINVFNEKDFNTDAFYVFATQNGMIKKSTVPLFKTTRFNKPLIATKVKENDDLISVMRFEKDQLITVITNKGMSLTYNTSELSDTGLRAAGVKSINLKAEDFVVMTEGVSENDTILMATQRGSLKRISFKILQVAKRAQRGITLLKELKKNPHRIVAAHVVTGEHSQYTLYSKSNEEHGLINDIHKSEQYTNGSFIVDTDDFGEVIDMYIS
# Sequence of Topoisomerase IV (P0C1S7 whole entry): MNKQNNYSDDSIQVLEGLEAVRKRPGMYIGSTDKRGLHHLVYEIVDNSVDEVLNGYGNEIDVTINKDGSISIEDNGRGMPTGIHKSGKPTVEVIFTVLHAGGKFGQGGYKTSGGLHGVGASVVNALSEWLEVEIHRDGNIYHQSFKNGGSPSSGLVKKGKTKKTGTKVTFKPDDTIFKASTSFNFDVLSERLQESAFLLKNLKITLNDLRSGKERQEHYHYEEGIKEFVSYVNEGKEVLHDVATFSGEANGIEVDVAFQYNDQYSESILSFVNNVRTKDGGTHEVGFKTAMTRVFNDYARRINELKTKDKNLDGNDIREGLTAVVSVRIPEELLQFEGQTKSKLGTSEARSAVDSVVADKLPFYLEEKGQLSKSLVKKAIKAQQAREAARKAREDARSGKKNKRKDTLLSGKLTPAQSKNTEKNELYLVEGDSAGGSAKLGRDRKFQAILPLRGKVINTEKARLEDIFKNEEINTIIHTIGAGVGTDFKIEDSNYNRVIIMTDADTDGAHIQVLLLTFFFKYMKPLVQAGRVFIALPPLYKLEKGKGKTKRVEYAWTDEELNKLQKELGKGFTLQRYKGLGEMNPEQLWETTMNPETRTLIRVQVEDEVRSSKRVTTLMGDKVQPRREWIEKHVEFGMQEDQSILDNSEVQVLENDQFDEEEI
# T1 sequence (P0C1U9 whole entry): as the sequence (P0C1U9 whole entry) above
# T4 sequence (P20831 whole entry): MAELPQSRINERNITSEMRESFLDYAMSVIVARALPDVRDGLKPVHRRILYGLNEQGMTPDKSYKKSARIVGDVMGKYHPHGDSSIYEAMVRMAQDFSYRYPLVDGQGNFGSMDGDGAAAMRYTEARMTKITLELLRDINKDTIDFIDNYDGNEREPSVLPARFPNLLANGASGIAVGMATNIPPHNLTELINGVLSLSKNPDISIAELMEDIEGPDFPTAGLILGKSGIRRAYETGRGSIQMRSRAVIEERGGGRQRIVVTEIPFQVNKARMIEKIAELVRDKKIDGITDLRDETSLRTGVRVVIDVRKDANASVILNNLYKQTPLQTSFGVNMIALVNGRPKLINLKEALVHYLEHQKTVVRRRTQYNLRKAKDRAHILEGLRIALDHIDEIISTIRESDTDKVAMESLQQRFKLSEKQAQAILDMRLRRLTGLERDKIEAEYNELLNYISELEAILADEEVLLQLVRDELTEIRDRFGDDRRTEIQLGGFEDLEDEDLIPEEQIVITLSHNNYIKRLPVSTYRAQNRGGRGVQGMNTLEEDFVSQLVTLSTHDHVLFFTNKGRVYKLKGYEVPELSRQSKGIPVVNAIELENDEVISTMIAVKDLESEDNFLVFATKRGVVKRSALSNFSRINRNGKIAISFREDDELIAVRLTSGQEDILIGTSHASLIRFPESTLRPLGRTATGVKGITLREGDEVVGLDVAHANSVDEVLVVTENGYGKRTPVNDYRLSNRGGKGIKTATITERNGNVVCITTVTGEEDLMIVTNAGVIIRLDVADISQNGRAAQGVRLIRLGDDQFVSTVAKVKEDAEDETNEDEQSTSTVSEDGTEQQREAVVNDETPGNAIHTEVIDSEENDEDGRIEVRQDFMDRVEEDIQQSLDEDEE
# T2 sequence (P0AES4 whole entry): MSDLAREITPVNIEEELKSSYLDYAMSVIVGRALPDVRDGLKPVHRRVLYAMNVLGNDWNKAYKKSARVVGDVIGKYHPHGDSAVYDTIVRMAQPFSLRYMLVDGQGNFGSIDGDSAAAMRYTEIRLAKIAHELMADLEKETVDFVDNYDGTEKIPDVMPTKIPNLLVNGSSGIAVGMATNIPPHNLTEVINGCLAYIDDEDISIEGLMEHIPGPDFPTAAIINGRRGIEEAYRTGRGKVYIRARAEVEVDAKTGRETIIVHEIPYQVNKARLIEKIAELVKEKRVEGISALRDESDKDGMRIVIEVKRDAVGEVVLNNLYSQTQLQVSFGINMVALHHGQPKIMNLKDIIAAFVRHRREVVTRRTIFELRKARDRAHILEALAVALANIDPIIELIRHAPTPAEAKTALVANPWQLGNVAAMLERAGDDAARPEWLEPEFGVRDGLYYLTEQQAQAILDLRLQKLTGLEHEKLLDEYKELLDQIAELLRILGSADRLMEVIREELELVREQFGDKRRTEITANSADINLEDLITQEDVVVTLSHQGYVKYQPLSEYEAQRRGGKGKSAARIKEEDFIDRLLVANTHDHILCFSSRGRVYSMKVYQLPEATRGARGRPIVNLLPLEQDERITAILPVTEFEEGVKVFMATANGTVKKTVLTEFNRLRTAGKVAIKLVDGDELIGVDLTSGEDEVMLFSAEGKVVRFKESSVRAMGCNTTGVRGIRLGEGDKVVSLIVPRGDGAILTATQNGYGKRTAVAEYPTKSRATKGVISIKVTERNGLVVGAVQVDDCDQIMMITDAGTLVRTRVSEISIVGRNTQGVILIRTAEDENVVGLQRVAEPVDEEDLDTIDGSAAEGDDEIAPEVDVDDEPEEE
smiles,measurement,setting,value
COc1ccc2c3conc3c(=O)n(CCN3CCC(NCc4ccc5c(n4)NC(=O)CO5)CC3)c2c1,IC50,[1],140 nM
same,IC50,DNA gyrase [2],1660 nM
same,MIC,Escherichia coli [3],0.12 µg/mL
same,MIC,Staphylococcus aureus [4],0.12 µg/mL
COc1ccc2ncc(F)c([C@@H](O)CC[C@@H]3CCN(CCSc4cccs4)C[C@@H]3C(=O)O)c2c1,IC50,[5],18 µM
same,IC50,DNA gyrase subunit A [6],11 µM
same,IC50,[7],2200 nM
same,IC50,DNA gyrase subunit A [8],1000 nM
COc1ccc2cc(F)nc(N3CCN(CC(O)CNc4cc(=O)oc5ccc(F)cc45)CC3)c2c1 (racemic),Ratio,Escherichia coli [9],>=32 - 267
same,selectivity ratio,[10],> 208
same,MIC,Staphylococcus aureus [11],4 µg/mL
same,selectivity ratio,[12],> 5500
same,MIC,Klebsiella pneumoniae,4 µg/mL
same,IC50,DNA gyrase subunit A [13],< 100 nM
same,MIC,Neisseria gonorrhoeae,≤ 0.06 µg/mL
same,MIC,Haemophilus influenzae [14],0.5 µg/mL
same,MIC,Staphylococcus aureus [15],8 µg/mL
same,MIC,Enterococcus faecalis,0.25 µg/mL
same,selectivity ratio,[16],66
same,IC50,[17],> 150 µM
same,IC50,HT-29,> 100 µM
same,MIC,Staphylococcus aureus [18],0.03 µg/mL
same,IC50,[19],100 nM
same,IC50,HepG2,25 µM
same,IC50,[20],< 100 nM
same,MIC,Staphylococcus aureus [21],< 0.12 µM
same,MIC,Enterococcus faecium,0.12 µg/mL
same,Ratio,Staphylococcus aureus [22],>=32 - 267
same,MIC,Pseudomonas aeruginosa,4 µg/mL
same,Ratio,Staphylococcus aureus [23],>=32 - 267
same,MIC,Escherichia coli [24],> 8 µg/mL
same,IC50,HEK293,66 µM
same,IC50,DNA gyrase subunit A [25],40 nM
same,MIC,Escherichia coli [26],1 µM
same,MIC,Haemophilus influenzae [27],0.5 µg/mL
same,selectivity ratio,[28],25
O=C1COc2ccc(N3C[C@H](CCCN[C@@H]4Cn5c(=O)ccc6ccc(F)c4c65)OC3=O)nc2N1,IC50,DNA gyrase [29],8 nM
same,IC50,[1],30 nM
same,IC50,DNA gyrase [2],125 nM
same,IC50,Topoisomerase IV,2000 nM
same,MIC90,Escherichia coli [3],0.5 µg/mL
same,MIC90,Staphylococcus aureus [4],0.016 µg/mL
